The record followed here is patent US20050059745A1, “Antiviral therapy” (priority 1999, published 2005).

Some results are limits rather than exact numbers.

The subject of data set [1] is HIV-1Ba-L. The experiment in a line: HIV-1 production of chronically infected PBMC, p24 ELISA. It counts as cell-based. The following applies: APHS added 5 days after infection, 2 days incubation (FIG. 6B). On the procedure:
(A, B) Peripheral blood mononuclear cells (PBMC) were isolated from heparinized blood from HIV-1-, HIV-2-, and hepatitis B- seronegative donors and obtained on Ficoll-Hypaque density gradients. Cells were washed twice, stimulated with 5 μg/ml phytohemagglutinin (PHA), and cultured in RPMI-1640 medium supplemented with 5 mM Hepes, 19 mM sodium bicarbonate, 10 μg/mL gentamycin, and 10% heat-inactivated fetal calf serum (PBMC culture medium) at a concentration of 2×10^6 cells/ml. After 3 days of incubation stimulated PBMC were recovered from the flasks and infected for 2 hours with HIV-1Ba-L at a multiplicity of infection of 0.01. Afterwards, HIV-infected and mock-infected PBMC were washed twice to remove unbound virus. (A) PBMC were cultured at a density of 6×10^5 cells/well with different concentrations of APHS and after 5 days of incubation samples of culture supernatant were collected. (B) PBMC were cultured in suspension at a concentration of 2×10^6 cells/ml in Teflon flasks in PBMC culture medium. […] After 2 days of incubation samples of culture supernatant were collected. p24-core antigen production was quantified using the enzyme-linked immunosorbent assay (ELISA) system of John Moore. […]
On the technique in general: An ELISA detects its analyte on a solid surface through an enzyme-linked reagent.

The test system of data set [2] is HIV-1. The following applies: Table 3. The procedure: MDM, and PBMC, were incubated with HIV at a multiplicity of infection of 0.02, and 0.006 or 0.001, respectively. After two hours cells are washed to remove unbound virus and cultured for 4 to 7 days in different concentrations of the drug under investigation. On day 4, 5 and 7, 0.01 ml of supernatant is removed from the culture and virus in culture supernatant is inactivated in a final concentration of 0.05% empigen (Calbiochem-Novabiochem Co., La Jolla, Calif.). The presence of HIV-1 in the inactivated supernatant is monitored by checking for the p24-core antigen using the enzyme-linked immunosorbent assay (ELISA) system of John Moore.

The subject of data set [3] is HIV-1. The conditions noted are these: PBMC, FIG. 4.
Experimental: (§1) FIG. 4—Peripheral blood mononuclear cells (PBMC) were isolated from heparinized blood from HIV-1-, HIV-2-, and hepatitis B-seronegative donors and obtained on Ficoll-Hypaque density gradients. Cells were washed twice, stimulated with 5 mg/ml phytohemagglutinin (PHA), and cultured in RPMI-1640 medium supplemented with 5 mM Hepes, 19 mM sodium bicarbonate, 10 mg/mL gentamycin, and 10% heat-inactivated fetal calf serum at a concentration of 2×10^6 cells/ml. After 3 days of incubation stimulated PBMC were recovered from the flasks and infected for 2 hours with (a) HIV-1AT at a multiplicity of infection of 0.001, (b) HIV-1BaL at a multiplicity of infection of 0.006 and (c) HIV-1BaL or HIV-1AT at a multiplicity of infection of 0.01 or 0.001, respectively. HIV-infected and mock-infected PBMC were washed twice to remove unbound virus and cultured for 4 to 7 days in different concentrations of APHS. After 4 and 5 days of incubation samples of culture supernatant were collected and p24-core antigen production was quantified using the enzyme-linked immunosorbent assay (ELISA) system of John Moore.
The subject of data set [4] is HIV-1Ba-L. Nature of the data set: HIV-1 production by chronically infected MDM, p24 ELISA. The format is cell-based. The following applies: APHS added 5 days after infection, 2 days incubation (FIG. 6D).
In data set [5] the test system is monocyte-derived macrophages (MDM). Nature of the data set: MDM viability, MTT cytotoxicity assay. The format is cell-based, human. The conditions noted are these: 4 day incubation. The procedure:
FIG. 3—Monocyte-derived macrophages (MDM) were obtained like described in legend of FIG. 2. […] After a 4 day incubation period, cellular viability was assessed by MTT cytotoxicity assay where viable cells convert MTT into a colored formazan dye that can be measured spectrophotometrically.
Cell viability is assessed by the MTT assay. In short, cells are incubated with MTT 3-(4,5-dimethylthiazol-2-yl)-2,5-diphenyltetrazollumbromide (Sigma) for 2 hours at 37° C. During this time viable cells convert MTT into […] formazan dyes. Afterwards crystals are solubilized with a solution containing isopropanol. The OD of the supernatant is measured at 550 nm.
Monocyte-derived macrophages (MDM) were obtained like described above. […] After a 4 days incubation period cellular viability was assessed by MTT cytotoxicity assay where viable cells convert MTT into a colored formazan dye that can be measured spectrophotometrically.
For orientation: Tetrazolium assays rely on reduction of a dye to a coloured formazan, in cell work by metabolically active cells.

A short description of data set [6]: Toxicity determinations of anti-viral compounds (Table 3). It counts as cell-based.
Data set [7] deals with HIV-1Ba-L. Nature of the data set: HIV-1Ba-L replication in acutely infected monocyte-derived macrophages, p24 ELISA. The conditions noted are these: 30 μM APHS, acutely infected MDM, moi 0.02. The format is cell-based. On the procedure: Concentrations above 0.3 μM APHS inhibit p24 production. 30 μM APHS inhibits HIV-1 replication by 88%.
Cells are washed twice and monocytes are purified by countercurrent centrifugal elutriation.

For data set [8], the system named is drug-resistant HIV strains. The conditions noted are these: drug-resistant vs sensitive strain.
The subject of data set [9] is PBMC. Nature of the data set: PBMC viability, WST-1 cytotoxicity assay. It counts as cell-based, human. The following applies: 5 days incubation. The procedure:
FIG. 5—PBMC were obtained and stimulated as described in legend of FIG. 4. […] After a 5 days incubation period, cellular viability was assessed by WST-1 cytotoxicity assay where viable cells convert WST-1 into a coloured formazan dye that can be measured spectrophotometrically.
Cell viability is assessed with WST-1 assay. Cells are incubated with the tetrazolium salt WST-1 (4-[3-(4-lodophenyl)-2-(4-nitrophenyl)-2H-5-tetrazolio]-1,3-benzene disulfonate) for 2 hours at 37° C. During this time viable cells convert WST-1 into water-soluble formazan dyes. The OD of the supernatant is measured at 550 nm.

Data set [10] deals with HIV-1BaL. Nature of the data set: HIV-1BaL replication in acutely infected PHA-stimulated PBMC, p24 ELISA. It counts as cell-based.
Experimental: as §1
Peripheral blood mononuclear cell (PBMC) fractions are isolated from heparinised blood from HIV-1-, HIV-2- and hepatitis B- seronegative donors (Blood-bank, Utrecht, the Netherlands) by Ficoll-Isopaque gradient separation. Cells are washed twice, stimulated with 4 μg/ml phytohemagglutinin (PHA), and cultured in RPMI-1640 medium supplemented with 5 mM Hepes, 19 mM sodium bicarbonate, 10 μg/ml gentamycin, and 10% heat-inactivated fetal calf serum at a concentration of 1×10^6 cells/ml.
(A, B) Peripheral blood mononuclear cells (PBMC) were isolated from heparinized blood from HIV-1-, HIV-2-, and hepatitis B- seronegative donors and obtained on Ficoll-Hypaque density gradients. […] After 2 days of incubation samples of culture supernatant were collected. p24-core antigen production was quantified using the enzyme-linked immunosorbent assay (ELISA) system of John Moore.

One may read the IC50 as the point on the concentration scale where inhibition reaches its midpoint. `CCCCC#CCSc1ccccc1OC(C)=O` [APHS, o-(acetoxy-phenyl)hept-2-ynyl sulfide]: the “inhibition of HIV-1 production of chronically infected PBMCs” value in data set [1] is “does not inhibit”. Besides, the 50% inhibitory concentration (IC50) in [2] worked out at 10 µM. In addition, the “APHS concentrations that inhibit HIV-1 production” value in [3] was “above 1 μM”. The “inhibition of HIV-1 production by chronically infected MDM” value in data set [4] was “does not inhibit”. Besides, in data set [5], the “cytotoxicity (MTT)” value is on record as “None of the tested concentrations of APHS was found to be cytotoxic”. Besides, in [6], the not toxic at is 30 µM. Moreover, the “inhibition of HIV-1 replication” value in data set [7] was 88%. Moreover, the “inhibitory activity against drug resistant strains relative to a sensitive strain” value in data set [8] is given as “two- to four-fold higher”. The “concentrations found to reduce viability (WST-1)” value in [9] is ≥ 100 µM. For the same compound, the “inhibition of HIV-1BaL production” value in data set [10] (1 μM APHS, PBMC, lower infectivity (FIG. 4c)) worked out at 50%. Also, the “inhibition of HIV-1Ba-L replication” value in data set [10] (30 μM APHS, acutely infected PBMC, moi 0.01 (FIG. 6A)) stood at 100%. In addition, the “inhibition of HIV-1BaL replication” value in [10] (PBMC, FIG. 4) turned out to be 100%. Further, the “APHS concentrations that inhibit HIV-1Ba-L replication” value in data set [10] (acutely infected PBMC, moi 0.01, 5 days (FIG. 6A)) is recorded as “above 3 μM”.
Consider `CCCCC#CCSc1ccccc1OCCCC` [BPHS], for which, in data set [2], the concentration for half-maximal inhibition (IC50) amounted to 40 µM. The not toxic at in [6] was 30 µM.
